Experimental data as given in patent US20060247320A1, “Compounds for inhibiting KSP kinesin activity” (priority 2005, published 2006).

What follows are compounds tested against T1, KSP motor domain (Homo sapiens, UniProt P52732) (assay: biochemical). Settings: IC50 (nM), KSP inhibitory activity, end-point assay; class symbols (Table 1).
T1 sequence (P52732 18-359 limits assumed): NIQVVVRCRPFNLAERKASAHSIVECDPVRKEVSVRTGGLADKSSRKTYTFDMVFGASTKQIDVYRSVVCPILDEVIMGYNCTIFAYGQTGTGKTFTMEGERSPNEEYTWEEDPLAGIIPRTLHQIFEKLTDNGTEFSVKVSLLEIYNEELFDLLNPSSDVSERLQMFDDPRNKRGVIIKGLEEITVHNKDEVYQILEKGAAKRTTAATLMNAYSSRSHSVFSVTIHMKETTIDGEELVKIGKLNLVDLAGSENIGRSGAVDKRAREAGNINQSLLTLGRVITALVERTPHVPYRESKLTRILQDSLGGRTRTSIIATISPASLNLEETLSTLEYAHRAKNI

C[Si](C)(C)C1CCc2nc3sc(C(=O)NCCN)cc3cc2C1 (stereo not drawn) [Example 191, N-(2-Aminoethyl) 5,6,7,8-Tetrahydro-6-(Trimethylsilyl)thieno[2,3-b]quinoline-2-Carboxamide] and C[Si](C)(C)C1CCc2nc3sc(C(N)=O)cc3cc2C1 (single isomer, unassigned) [Example 189, 5,6,8-Tetrahydro-6-(Trimethylsilyl)thieno[2,3-b]quinoline-2-Carboxamide] cannot be ordered by IC50: less than 100 nM for the first, less than 100 nM for the second.

Same assay, conditions: IC50 (nM), exact IC50 values, end-point assay (Table 2)

Going from C[Si](C)(C)C1CCc2nc3sc(C(=O)NCCN)cc3cc2C1 (stereo not drawn) [Example 191, N-(2-Aminoethyl) 5,6,7,8-Tetrahydro-6-(Trimethylsilyl)thieno[2,3-b]quinoline-2-Carboxamide] to C[Si](C)(C)C1CCc2nc3sc(C(N)=O)cc3cc2C1 (single isomer, unassigned) [Example 189, 5,6,8-Tetrahydro-6-(Trimethylsilyl)thieno[2,3-b]quinoline-2-Carboxamide], the IC50 rises from 10 nM to 50 nM (5-fold). The first is the more potent here.

Same assay, conditions: KSP inhibitory activity, end-point assay; class symbols (Table 1)

C[C@@H](CO)NC(=O)c1cc2cc3c(nc2s1)CCC([Si](C)(C)C)C3 (stereo partly drawn) [Example 190, 5,6,7,8-Tetrahydro-N-(2-hydroxy-1(S)-methylethyl)-6-(Trimethylsilyl)thieno[2,3-b]quinoline-2-Carboxamide] was tested, and the “IC50 (nM)” value was “B/C”.

Same assay, conditions: KSP inhibitory activity, end-point assay; class symbols (Table 1); read-out: IC50

First: CC(C)(C)[C@@H]1CCc2nc3sc(C(=O)N[C@H](CN)c4cccc(NC(=O)c5cnn[nH]5)c4)cc3cc2C1 [Example 253]
Second: CC(C)(C)[C@@H]1CCc2nc3sc(C(=O)N[C@H](CN)c4cccc(NC(=O)c5cn[nH]c5)c4)cc3cc2C1 [Example 237]
The IC50 of the first is higher: 100 to 1000 nM for the first, less than 100 nM for the second.

CC(C)(C)C1CCc2nc3sc(C(=O)Nc4ccc(N)cc4)cc3cc2C1 (stereo not drawn) [Example 226F] and CC(C)(C)C1CCc2nc3sc(C(=O)Nc4ccc(O)cc4)cc3cc2C1 (stereo not drawn) [Example 226A, 2-(1-Amino-4-Hydroxyphenyl) carboxamido-6-tert-butyl-5,6,7,8-tetrahydrothieno [2,3-b]quinoline] fall in the same range of IC50: 100 to 1000 nM for the first, 100 to 1000 nM for the second.

Compared with CC(C1CCc2nc3sc(C#N)c(N)c3cc2C1)C(C)(C)C (stereo not drawn) [Example 23], CC(C)C(C(C)C)C1CCc2nc3sc(C#N)c(N)c3cc2C1 (stereo not drawn) [Example 24] is lower in IC50: greater than 10000 nM for the first, 1000 to 10000 nM for the second.

Compared with CC(C)(C)C1CCc2nc3sc(-c4ncc(CN)o4)cc3cc2C1 (stereo not drawn) [Example 186, [2-(6-tert-Butyl-5,6,7,8-tetrahydrothieno[2,3-b]quinolin-2-yl)oxazol-5-yl]methylamine], CC(C)(C)C1CCc2nc3sc(-c4nnc[nH]4)cc3cc2C1 (stereo not drawn) [Example 182, 6-tert-Butyl-2-(4H-[1,2,4]triazol-3-yl)-5,6,7,8-tetrahydrothieno[2,3-b]quinoline] is lower in IC50: 1000 to 10000 nM for the first, 100 to 1000 nM for the second.

Compared with CCCC(C)(C)C1CCc2nc3sc(C#N)c(N)c3cc2C1 (stereo not drawn) [Example 10], CCC(C)(C)C1CCc2nc3sc(C#N)c(N)c3cc2C1 (stereo not drawn) [Example 12] is lower in IC50: 100 to 1000 nM for the first, less than 100 nM for the second.

CC(C)(C)C1CCc2nc3sc(C(=O)NCCN4CCOCC4)cc3cc2C1 (stereo not drawn) [Example 194, 6-(1,1-Dimethylethyl)-5,7,8-Tetrahydro-N-[2-(4-Morpholinyl)ethyl]thieno[2,3-b]quinoline-2-Carboxamide] and CC(C)(C)C1CCc2nc3sc(C(=O)NCCN4CCCC4)cc3cc2C1 (stereo not drawn) [Example 199, 6-(1,1-Dimethylethyl)-5,6,7,8-tetrahydro-N-[2-(1-Pyrrolidinyl)ethyl]thieno[2,3-b]quinoline-2-Carboxamide] fall in the same range of IC50: 1000 to 10000 nM for the first, 1000 to 10000 nM for the second.

CC(C)(C)C1CCc2nc3sc(C(=O)NC(CN)c4cccc(NC(=O)c5cnccn5)c4)cc3cc2C1 (stereo not drawn) [Example 227, 6-tert-Butyl-5,6,7,8-tetrahydrothieno[2,3-b]quinoline-2-carboxylic acid (2-amino-1-{3-[(pyrazine-2-carbonyl)amino]phenyl}ethyl)amide] and CC(C)(C)[C@@H]1CCc2nc3sc(C(=O)N[C@H](CN)c4cccc(NC(=O)c5ncco5)c4)cc3cc2C1 [Example 263, 6-tert-butyl-5,6,7,8-tetrahydrothieno[2,3-b]quinoline-2-carboxylic acid (2-amino-1-{3-[(oxazole-2-carbonyl)amino]phenyl}ethyl)amide] cannot be ordered by IC50: less than 100 nM for the first, less than 100 nM for the second.

CC(C)(C)C1CCc2nc3sc(C(=O)N[C@@H]4CCC[C@H]4O)cc3cc2C1 (stereo partly drawn) [Example 85] and CC(C)(C)C1CCc2nc3sc(C(=O)N[C@H]4CCC[C@@H]4O)cc3cc2C1 (stereo partly drawn) [Example 86] fall in the same range of IC50: 1000 to 10000 nM for the first, 1000 to 10000 nM for the second.

First: CC(C)(C)C1CCc2nc3sc(CO)cc3cc2C1 (stereo not drawn) [Example 144]
Second: COCc1cc2cc3c(nc2s1)CCC(C(C)(C)C)C3 (stereo not drawn) [Example 146]
The IC50 of the first is lower: less than 100 nM for the first, 1000 to 10000 nM for the second. The first is the more potent here.

First: CC(C)[C@@H](C#N)NC(=O)c1cc2cc3c(nc2s1)CCC(C(C)(C)C)C3 (stereo partly drawn) [Example 162, 6-tert-Butyl-5,6,7,8-tetrahydrothieno[2,3-b]quinoline-2-carboxylic acid [(1S)-1-cyano-2-methylpropyl]amide]
Second: CC(C)(C)C1CCc2nc3sc(C(N)=O)cc3cc2C1 (single isomer, unassigned; (-)) [Example 67, (−)-6-(1,1-dimethylethyl)-5,6,7,8-tetrahydrothieno[2,3-b]quinoline-2-carboxamide]
The IC50 of the first is higher: greater than 10000 nM for the first, 100 to 1000 nM for the second.

First: Cc1ccc([C@@H](CN)NC(=O)c2cc3cc4c(nc3s2)CCC(C(C)(C)C)C4)cc1 (stereo partly drawn) [Example 221]
Second: CC(C)(C)C1CCc2nc3sc(C(=O)N[C@H](CN)c4cccc(Br)c4)cc3cc2C1 (stereo partly drawn) [Example 210, 6-tert-butyl-5,6,7,8-tetrahydro-thieno[2,3-b]quinoline-2-carboxylic acid [(1S)-2-amino-1-(3-bromo-phenyl)-ethyl]-amide]
The IC50 of the first is lower: less than 100 nM for the first, 100 to 1000 nM for the second. The first is the more potent here.

Compared with CC(C)(C)C1CCc2nc3sc(C#N)cc3cc2C1 (single isomer, unassigned) [Example 63], CC(=O)Nc1cc2cc3c(nc2s1)CCC(C(C)(C)C)C3 (stereo not drawn) [Example 124, N-(6-tert-Butyl-5,6,7,8-tetrahydrothieno[2,3-b]quinolin-2-yl)acetamide] is higher in IC50: less than 100 nM for the first, 1000 to 10000 nM for the second.

Cc1ncnc(C)c1C(=O)Nc1ccc([C@@H](CN)NC(=O)c2cc3cc4c(nc3s2)CC[C@@H](C(C)(C)C)C4)cc1 [Example 272] and CC(C)(C)[C@@H]1CCc2nc3sc(C(=O)N[C@H](CN)c4ccc(NC(=O)c5cocn5)cc4)cc3cc2C1 [Example 271] cannot be ordered by IC50: less than 100 nM for the first, less than 100 nM for the second.

First: CCC(CC)C1CCc2nc3sc(C#N)c(N)c3cc2C1 (stereo not drawn) [Example 26]
Second: CCCC1CCc2nc3sc(C#N)c(N)c3cc2C1 (stereo not drawn) [Example 15]
The IC50 of the first is lower: 100 to 1000 nM for the first, 1000 to 10000 nM for the second. The first is the more potent here.

First: CC(C)(C)C1CCc2nc3sc(C(=O)NCCCN4CCCC4=O)cc3cc2C1 (stereo not drawn) [Example 196, 6-(1,1-Dimethylethyl)-5,6,7,8-Tetrahydro-N-[3-(2-oxo-1-Pyrrolidinyl)propyl]thieno[2,3-b]quinoline-2-Carboxamide]
Second: CC[C@H](NC(=O)c1cc2cc3c(nc2s1)CCC(C(C)(C)C)C3)C(=N)N (stereo partly drawn) [Example 170]
The IC50 of the first is higher: 1000 to 10000 nM for the first, 100 to 1000 nM for the second.

N#Cc1sc2nc3c(cc2c1N)CC(=O)CC3 [Example 53] and N#Cc1sc2nc3c(cc2c1N)CCC(C(F)(F)F)C3 (stereo not drawn) [Example 50] cannot be ordered by IC50: greater than 10000 nM for the first, greater than 10000 nM for the second.

Cn1ccc(C(=O)Nc2cccc([C@@H](CN)NC(=O)c3cc4cc5c(nc4s3)CC[C@@H](C(C)(C)C)C5)c2)n1 [Example 239] and Cn1cnc(C(=O)Nc2cccc([C@@H](CN)NC(=O)c3cc4cc5c(nc4s3)CC[C@@H](C(C)(C)C)C5)c2)c1 [Example 249] cannot be ordered by IC50: less than 100 nM for the first, less than 100 nM for the second.

N#Cc1sc2nc3c(cc2c1N)CC(C1CCCC1)CC3 (stereo not drawn) [Example 22] and COC(=O)[C@H]1CCCCN1C(=O)c1cc2cc3c(nc2s1)CCC(C(C)(C)C)C3 (stereo partly drawn) [Example 90] cannot be ordered by IC50: greater than 10000 nM for the first, greater than 10000 nM for the second.

CC(C)(C)C1CCc2nc3sc(C(=O)Nc4ccncc4)cc3cc2C1 (stereo not drawn) [Example 226C] and CC(C)(C)C1CCc2nc3sc(C(=O)Nc4ccc(N)nc4)cc3cc2C1 (stereo not drawn) [Example 226J] fall in the same range of IC50: 100 to 1000 nM for the first, 100 to 1000 nM for the second.

Cn1nccc1C(=O)Nc1cccc([C@@H](CN)NC(=O)c2cc3cc4c(nc3s2)CC[C@@H](C(C)(C)C)C4)c1 [Example 238] and CCOC(=O)Nc1cccc(C(CN)NC(=O)c2cc3cc4c(nc3s2)CCC(C(C)(C)C)C4)c1 (stereo not drawn) [Example 223, (3-{2-amino-1-[(6-tert-butyl-5,6,7,8-tetrahydrothieno[2,3-b]quinoline-2-carbonyl)amino]ethyl}phenyl)carbamic acid ethyl ester] cannot be ordered by IC50: less than 100 nM for the first, less than 100 nM for the second.

CC(C)(C)[C@@H]1CCc2nc3sc(C(=O)N[C@H](CNCCO)c4cccc(NC(=O)c5ncco5)c4)cc3cc2C1 [Example 265, 6-tert-Butyl-5,6,7,8-tetrahydrothieno[2,3-b]quinoline-2-carboxylic acid (2-(2-hydroxy-ethylamino)-1-{3-[(oxazole-2-carbonyl)amino]phenyl}ethyl)amide] and CC(C)(C)[C@@H]1CCc2nc3sc(C(=O)N[C@H](CN)c4cccc(NC(=O)c5nsnc5N)c4)cc3cc2C1 [Example 255] cannot be ordered by IC50: less than 100 nM for the first, less than 100 nM for the second.

Compared with CC(C)(C)C1CCc2nc3sc(C(N)=O)nc3cc2C1 (stereo not drawn) [Example 131, 7-tert-Butyl-5,6,7,8-tetrahydrothiazolo[5,4-b]quinoline-2-carboxylic acid amide], CC(C)(C)C1CCc2nc3sc(N)nc3cc2C1 (stereo not drawn) [Example 133, 7-tert-Butyl-5,6,7,8-tetrahydrothiazolo[5,4-b]quinolin-2-ylamine] is higher in IC50: 100 to 1000 nM for the first, greater than 10000 nM for the second. The first is the more potent here.

CC(C)(C)C1CCc2nc3sc(C(=O)N[C@H](CN)Cc4ccc(O)cc4)cc3cc2C1 (stereo partly drawn) [Example 180] and Cc1onc(-c2ccccc2)c1C(=O)Nc1cccc([C@@H](CN)NC(=O)c2cc3cc4c(nc3s2)CC[C@@H](C(C)(C)C)C4)c1 [Example 230] fall in the same range of IC50: 100 to 1000 nM for the first, 100 to 1000 nM for the second.

Compared with CC(C)(C)C1CCc2nc3sc(S)nc3cc2C1 (stereo not drawn) [Example 128, 7-tert-Butyl-5,6,7,8-tetrahydrothiazolo[5,4-b]quinoline-2-thiol], CC(C)(C)C1CCc2nc3sc(S(C)(=O)=O)cc3cc2C1 (stereo not drawn) [Example 122, 6-tert-Butyl-2-methanesulfonyl-5,6,7,8-tetrahydrothieno[2,3-b]quinoline] is higher in IC50: 100 to 1000 nM for the first, 1000 to 10000 nM for the second. The first is the more potent here.

Same assay, conditions: exact IC50 values, end-point assay (Table 2); read-out: IC50

First: CC(C)(C)C1CCc2nc3sc(C(=O)NC(CN)c4cccc(NC(=O)c5cnccn5)c4)cc3cc2C1 (stereo not drawn) [Example 227, 6-tert-Butyl-5,6,7,8-tetrahydrothieno[2,3-b]quinoline-2-carboxylic acid (2-amino-1-{3-[(pyrazine-2-carbonyl)amino]phenyl}ethyl)amide]
Second: CC(C)(C)[C@@H]1CCc2nc3sc(C(=O)N[C@H](CN)c4cccc(NC(=O)c5cn[nH]c5)c4)cc3cc2C1 [Example 237]
The IC50 of the first is 2.1-fold higher: 21 nM for the first, 10 nM for the second. The second is the more potent here.

First: CC(C)(C)C1CCc2nc3sc(CO)cc3cc2C1 (stereo not drawn) [Example 144]
Second: CC(C)(C)C1CCc2nc3sc(C#N)cc3cc2C1 (single isomer, unassigned) [Example 63]
The IC50 of the first is 1.5-fold higher: 60 nM for the first, 40 nM for the second. The second is the more potent here.
